Measurements: PMC12718081 (ACS Infectious Diseases, 2025)
Entries after “also recorded” stand apart in the source; their conditions may differ. Where two headings read alike, the source gives them in different places.

Legend:
S. mansoni = tested on: S. mansoni; parameters: method as in numbers not given; details: ref numbers not given, cited from earlier work
S. mansoni schistosomula = assay: Roboworm high-content screening assay on schistosomula (motility and phenotype scores); assay type: cell-based, Schistosoma mansoni; details: 72 h
Description: All PZQ derivatives were synthesized in the racemic form and evaluated as such. The compounds were initially screened at 10 μM against S. mansoni schistosomula using the Roboworm high-content screening assay , and were declared hits or nonhits based on their effect on parasites’ motility and phenotype scores after 72 h of incubation. As none of the compounds were considered hits at this concentration, we performed a titration from 6.25 to 50 μM (Figure S27).
DMSO was included as a negative control. Compounds were considered hits if both their motility and phenotype scores were lower than −0.35 and −0.15, respectively (region delimited by the dashed lines). In red, PZQ analogues selected for further analysis.
For the collection of schistosomula, B. glabrata snails infected with S. mansoni were shed for 2 h under light at 26 °C. Cercariae were collected, mechanically transformed into schistosomula as previously described.
DMSO (0.625%, v/v) was included as a negative control. Z′ values for the assay were calculated to be 0.542 for phenotype and 0.361 for motility. […]
(§1) Auranofin (AUR) was included at 10 µM as positive control. DMSO was included as a negative control. Compounds were considered hits if both their motility and phenotype scores were lower than -0.35 and -0.15, respectively (region delimited by the […]

Sm.TRPMMCLZ = tested on: Sm.TRPMMCLZ; parameters: method as in number not given; details: background statement; ref number not given; cited from earlier work
juvenile schistosomes = assay: Microscopy analysis of juvenile morphology and motility (viability score 0-3); details: 72 h
[1] = tested on: adult schistosomes (male and female worms); assay: Adult worm ex vivo high-content image-based motility assay; assay type: cell-based, Schistosoma mansoni
Description: Adult schistosomes’ motility was determined using a high-content assay previously developed by our group, , with images analyzed in CellProfiler software. More details are provided in the Supporting Information.
(§2) Adult worm ex-vivo high-content assay
(§3) “Area” and “False Negative Rate” from the MeasureObjectSizeShape and MeasureObjectOverlap modules, respectively. These measurements were then modeled by a multilevel generalized linear statistical model. The effects of the experimental treatments on […]
(§4) The half-maximal inhibitory
(§5) Windows (GraphPad Software, Boston, MA, USA; www.graphpad.com). […]
with DMSO as a negative control.

[2] = tested on: juvenile schistosomes (21 days p.i.); assay: XTT juvenile viability assay; assay type: cell-based, Schistosoma mansoni; details: 48 h
Fh.TRPMPZQ = tested on: Fh.TRPMPZQ; parameters: method as in number not given; details: background statement; ref number not given; cited from earlier work
Eg.TRPMPZQ = Eg.TRPMPZQ (Echinococcus granulosus, UniProt W6UVV9); assay: cell-based; details: HEK293, Ca2+ reporter, mean ± standard deviation; read-out: Bmax, Eg.TRPMPZQ activation
Sequence of Eg.TRPMPZQ (W6UVV9 entry or part of it): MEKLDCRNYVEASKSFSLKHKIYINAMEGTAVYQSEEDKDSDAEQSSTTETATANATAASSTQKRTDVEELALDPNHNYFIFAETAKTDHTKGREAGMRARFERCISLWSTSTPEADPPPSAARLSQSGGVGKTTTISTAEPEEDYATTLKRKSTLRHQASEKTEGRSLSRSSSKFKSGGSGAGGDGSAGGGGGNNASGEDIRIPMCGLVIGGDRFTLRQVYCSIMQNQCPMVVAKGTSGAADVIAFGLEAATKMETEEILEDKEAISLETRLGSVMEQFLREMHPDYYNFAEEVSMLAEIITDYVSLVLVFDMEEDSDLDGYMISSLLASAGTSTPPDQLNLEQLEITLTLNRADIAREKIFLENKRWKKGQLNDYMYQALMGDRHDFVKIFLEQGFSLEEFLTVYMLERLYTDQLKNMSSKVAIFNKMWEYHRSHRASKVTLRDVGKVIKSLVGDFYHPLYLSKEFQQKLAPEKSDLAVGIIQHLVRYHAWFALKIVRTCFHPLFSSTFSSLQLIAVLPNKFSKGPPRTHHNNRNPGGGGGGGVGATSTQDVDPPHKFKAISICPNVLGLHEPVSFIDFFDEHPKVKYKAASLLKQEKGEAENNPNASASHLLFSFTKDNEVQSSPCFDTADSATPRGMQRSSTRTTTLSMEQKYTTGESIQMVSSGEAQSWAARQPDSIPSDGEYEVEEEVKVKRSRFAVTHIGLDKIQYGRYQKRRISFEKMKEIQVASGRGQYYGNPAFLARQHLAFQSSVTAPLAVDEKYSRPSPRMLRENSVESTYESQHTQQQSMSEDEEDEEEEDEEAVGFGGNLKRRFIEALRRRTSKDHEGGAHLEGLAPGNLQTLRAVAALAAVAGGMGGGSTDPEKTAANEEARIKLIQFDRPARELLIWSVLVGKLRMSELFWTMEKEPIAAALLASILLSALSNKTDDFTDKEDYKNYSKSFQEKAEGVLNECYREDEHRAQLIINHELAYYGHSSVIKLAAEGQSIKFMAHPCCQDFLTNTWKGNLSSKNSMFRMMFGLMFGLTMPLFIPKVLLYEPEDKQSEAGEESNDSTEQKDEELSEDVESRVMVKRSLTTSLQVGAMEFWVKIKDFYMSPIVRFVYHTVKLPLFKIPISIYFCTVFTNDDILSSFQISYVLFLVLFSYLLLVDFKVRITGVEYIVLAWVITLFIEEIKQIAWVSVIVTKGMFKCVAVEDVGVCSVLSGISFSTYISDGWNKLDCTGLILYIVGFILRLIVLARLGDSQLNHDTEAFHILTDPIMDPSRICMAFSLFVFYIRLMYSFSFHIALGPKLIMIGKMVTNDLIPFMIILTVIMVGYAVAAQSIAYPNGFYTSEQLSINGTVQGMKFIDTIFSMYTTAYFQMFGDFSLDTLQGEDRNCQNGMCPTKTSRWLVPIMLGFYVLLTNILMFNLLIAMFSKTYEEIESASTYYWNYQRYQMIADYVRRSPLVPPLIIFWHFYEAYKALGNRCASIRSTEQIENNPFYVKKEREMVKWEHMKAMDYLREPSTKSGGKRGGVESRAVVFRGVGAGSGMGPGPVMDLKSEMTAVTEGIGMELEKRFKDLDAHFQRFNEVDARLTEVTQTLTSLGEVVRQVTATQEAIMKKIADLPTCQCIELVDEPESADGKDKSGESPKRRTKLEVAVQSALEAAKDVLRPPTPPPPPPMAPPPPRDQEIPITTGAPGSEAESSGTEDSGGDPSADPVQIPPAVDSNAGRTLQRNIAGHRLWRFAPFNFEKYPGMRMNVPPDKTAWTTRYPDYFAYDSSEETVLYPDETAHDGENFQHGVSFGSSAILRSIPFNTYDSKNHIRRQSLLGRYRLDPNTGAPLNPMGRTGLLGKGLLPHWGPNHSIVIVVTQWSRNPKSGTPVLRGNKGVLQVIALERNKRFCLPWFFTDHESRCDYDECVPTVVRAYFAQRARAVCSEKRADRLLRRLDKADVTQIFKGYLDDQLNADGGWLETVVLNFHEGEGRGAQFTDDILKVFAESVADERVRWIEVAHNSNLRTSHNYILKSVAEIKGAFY

Sm.TRPMPZQ (wild-type) = Sm.TRPMPZQ (wild-type) (Schistosoma mansoni, UniProt A0A5K4F0X5); assay: Ca2+ reporter (FLIPR) activation assay, wild-type Sm.TRPMPZQ in HEK293 cells; assay type: cell-based
Sequence of Sm.TRPMPZQ (wild-type) (A0A5K4F0X5 entry or part of it): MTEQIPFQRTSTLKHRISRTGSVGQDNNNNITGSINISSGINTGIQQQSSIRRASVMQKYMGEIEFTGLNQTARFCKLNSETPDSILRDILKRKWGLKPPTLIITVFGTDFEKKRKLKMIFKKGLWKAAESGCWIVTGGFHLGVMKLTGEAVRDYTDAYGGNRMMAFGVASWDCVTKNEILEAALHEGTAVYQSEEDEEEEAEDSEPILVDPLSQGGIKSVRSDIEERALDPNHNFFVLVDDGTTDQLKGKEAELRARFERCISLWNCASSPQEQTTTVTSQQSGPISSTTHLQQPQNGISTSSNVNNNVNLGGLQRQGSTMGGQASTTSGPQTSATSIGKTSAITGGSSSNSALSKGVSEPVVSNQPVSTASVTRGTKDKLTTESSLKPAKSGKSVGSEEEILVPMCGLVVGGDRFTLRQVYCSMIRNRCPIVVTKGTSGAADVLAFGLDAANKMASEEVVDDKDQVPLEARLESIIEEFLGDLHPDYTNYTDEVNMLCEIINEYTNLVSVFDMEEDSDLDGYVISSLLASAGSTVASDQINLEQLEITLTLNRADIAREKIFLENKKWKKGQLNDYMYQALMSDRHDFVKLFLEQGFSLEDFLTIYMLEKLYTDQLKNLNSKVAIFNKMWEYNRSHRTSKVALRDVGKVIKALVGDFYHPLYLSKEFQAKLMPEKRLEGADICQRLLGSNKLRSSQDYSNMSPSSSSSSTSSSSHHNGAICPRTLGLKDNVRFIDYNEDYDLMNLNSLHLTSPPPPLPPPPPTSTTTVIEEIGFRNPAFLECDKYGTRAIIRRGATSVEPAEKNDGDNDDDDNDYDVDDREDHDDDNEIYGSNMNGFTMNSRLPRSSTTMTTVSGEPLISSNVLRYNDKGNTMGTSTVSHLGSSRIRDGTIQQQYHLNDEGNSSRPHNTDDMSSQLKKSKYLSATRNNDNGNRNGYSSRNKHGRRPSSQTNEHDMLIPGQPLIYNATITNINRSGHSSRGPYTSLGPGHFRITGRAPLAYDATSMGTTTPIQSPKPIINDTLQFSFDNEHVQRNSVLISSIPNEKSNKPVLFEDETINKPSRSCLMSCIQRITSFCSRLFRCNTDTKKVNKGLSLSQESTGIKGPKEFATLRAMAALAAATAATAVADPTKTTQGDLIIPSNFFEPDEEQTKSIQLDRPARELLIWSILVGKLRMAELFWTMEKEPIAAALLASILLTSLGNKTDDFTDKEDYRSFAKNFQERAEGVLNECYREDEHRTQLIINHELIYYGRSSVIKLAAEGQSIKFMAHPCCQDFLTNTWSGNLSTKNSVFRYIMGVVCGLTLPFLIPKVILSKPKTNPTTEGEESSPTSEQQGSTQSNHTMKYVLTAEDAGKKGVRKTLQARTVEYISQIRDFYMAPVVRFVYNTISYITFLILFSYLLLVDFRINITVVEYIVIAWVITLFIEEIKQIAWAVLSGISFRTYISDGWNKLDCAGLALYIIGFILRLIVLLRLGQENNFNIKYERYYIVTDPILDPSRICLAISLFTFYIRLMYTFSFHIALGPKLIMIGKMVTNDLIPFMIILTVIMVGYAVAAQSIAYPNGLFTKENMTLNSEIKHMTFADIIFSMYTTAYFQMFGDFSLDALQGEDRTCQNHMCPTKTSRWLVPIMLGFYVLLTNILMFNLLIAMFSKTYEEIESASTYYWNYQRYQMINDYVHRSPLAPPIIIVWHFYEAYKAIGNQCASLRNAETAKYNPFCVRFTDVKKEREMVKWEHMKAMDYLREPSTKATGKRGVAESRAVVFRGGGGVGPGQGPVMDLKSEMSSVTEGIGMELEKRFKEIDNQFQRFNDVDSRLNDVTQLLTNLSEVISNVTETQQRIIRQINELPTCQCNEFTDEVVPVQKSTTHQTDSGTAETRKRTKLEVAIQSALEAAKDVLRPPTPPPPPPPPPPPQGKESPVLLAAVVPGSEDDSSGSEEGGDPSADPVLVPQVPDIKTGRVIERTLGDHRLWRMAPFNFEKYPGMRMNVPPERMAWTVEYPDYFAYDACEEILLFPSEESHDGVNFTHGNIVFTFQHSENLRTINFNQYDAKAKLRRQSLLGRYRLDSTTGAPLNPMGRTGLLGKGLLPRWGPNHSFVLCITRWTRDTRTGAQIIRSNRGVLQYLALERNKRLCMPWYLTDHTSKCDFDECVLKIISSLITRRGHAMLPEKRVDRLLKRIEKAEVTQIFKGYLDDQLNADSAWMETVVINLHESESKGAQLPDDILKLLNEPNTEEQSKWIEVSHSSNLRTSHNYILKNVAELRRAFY
Description: The Ca^2+ reporter assay was performed using a Fluorescence Imaging Plate Reader (FLIPR) system, as described in the Supporting Information. […]
as §4, §5
(§6) with DMSO as a negative control. […]
(§7) reader. […] The fluorescence
(§8) Untransfected HEK293 cells were used as a control.
(§9) 10% fetal bovine serum (FBS). […]
(§10) atmosphere containing 5% CO₂. Following incubation, the growth medium was removed and […]
(§11) buffer containing 2.5 mM probenecid in HBSS (with Ca²⁺ and Mg²⁺), 20 mM HEPES, 0.3% BSA (Sigma, A7030), and 0.03% L-ascorbic acid (Sigma). Cells were incubated for 40 minutes at 37 °C and subsequently for 20 minutes at room temperature. […]
prepared in assay buffer without dye and probenecid and dispensed into separate flat-bottom 384-well plates. Calcium flux measurements were performed at room temperature using a […]
(§12) instrument (Molecular Devices). Baseline fluorescence was recorded for 20 seconds, followed by the addition of 5 µL of each drug solution, after which fluorescence was measured continuously for 250 seconds. […]

Sm.TRPMPZQ L1515A mutant = assay: Ca2+ reporter activation assay, Sm.TRPMPZQ point mutant L1515A; assay type: cell-based, Schistosoma mansoni; details: 100 μM
Description: This trend likely indicates a similar binding mode.
The colored cells represent the range of EC50 values for each compound based on their ability to activate the channel.
(§13) The Ca^2+ reporter assay was performed using a Fluorescence Imaging Plate Reader (FLIPR) system, as described in the Supporting Information.
as §2, §3, §4, §5, §6, §7, §8, §9, §10, §11, §12

Sm.TRPMPZQ = assay: Ca2+ reporter assay in antagonist mode (block of PZQ activation of Sm.TRPMPZQ); assay type: cell-based, Schistosoma mansoni; details: preincubation 1 nM-100 μM for 10 min, data not shown
Description: as §13, §2, §3, §4, §5, §6, §7, §8, §9, §10
buffer containing 2.5 mM probenecid in HBSS (with Ca²⁺ and Mg²⁺), 20 mM HEPES, 0.3% BSA (Sigma, A7030), and 0.03% L-ascorbic acid (Sigma). Cells were incubated for 40 minutes at 37 °C and subsequently for 20 minutes at room temperature. A total of seven PZQ derivatives were tested, using racemic PZQ included as a positive control on each assay plate. Drug dilutions were prepared in assay buffer without dye and probenecid and dispensed into separate flat-bottom 384-well plates. Calcium flux measurements were performed at room temperature using a […]
as §12
as §1, with “schistosomula after 72h of incubation using the Roboworm high-content screening assay. Auranofin” for “Auranofin”
(1 picture or pasted object on this page, not shown here)

In the case of `O=C(C1CCCCC1)N1CC(=O)N2CCc3ccccc3C2C1` (stereo not drawn) [PZQ, Praziquantel, reference compound], the “in vitro potency against adult worms” value (S. mansoni; S. mansoni adults) is given as 0.16 to 0.75 µM, the “in vitro potency against schistosomula” value (S. mansoni; S. mansoni schistosomula) is given as 1.3 to 4.8 µM and the “hit classification (motility and phenotype scores)” value (S. mansoni schistosomula; 6.25 μM) is given as “not classified as a hit”. The “activation of Sm.TRPMMCLZ” value (Sm.TRPMMCLZ) was “does not activate”, the “number of juvenile worms with viability score 0” value (juvenile schistosomes; 10 μM, Table S1) was 56 and the “number of juvenile worms with viability score 1” value (juvenile schistosomes; 10 μM, Table S1) was 12. For the same compound, the “number of juvenile worms with viability score 2” value (juvenile schistosomes; 10 μM, Table S1) was 27, the “number of juvenile worms with viability score 3” value (juvenile schistosomes; 10 μM, Table S1) was 14 and the viability at 10 µM (juvenile schistosomes; Schistosoma mansoni, read-out: Relative frequency of viability score 3) was 12.8%. It also gave an EC50 ([1]; Schistosoma mansoni, 0 h, male adult worms, 0 h (immediately after addition), single experiment or geometric mean, read-out: Male worm motility inhibition (EC50)) of 0.28 µM, an EC50 ([1]; Schistosoma mansoni, 0 h, male, 0 h, individual experiments, read-out: Male worm motility inhibition (EC50), values of independent experiments) of 0.3 µM and an EC50 ([1]; Schistosoma mansoni, 24 h, male adult worms, 24 h, single experiment or geometric mean, read-out: Male worm motility inhibition (EC50)) of 0.25 µM. It also gave an EC50 ([1]; Schistosoma mansoni, 24 h, male, 24 h, individual experiments, read-out: Male worm motility inhibition (EC50), values of independent experiments) of 0.22 µM, an EC50 ([1]; Schistosoma mansoni, 48 h, male adult worms, 48 h, single experiment or geometric mean, read-out: Male worm motility inhibition (EC50)) of 0.25 µM and an EC50 ([1]; Schistosoma mansoni, 48 h, male, 48 h, individual experiments, read-out: Male worm motility inhibition (EC50), values of independent experiments) of 0.27 µM. The EC50 ([1]; Schistosoma mansoni, 72 h, male adult worms, 72 h, single experiment or geometric mean, read-out: Male worm motility inhibition (EC50)) was 0.16 µM, the EC50 ([1]; Schistosoma mansoni, 72 h, male, 72 h, individual experiments, read-out: Male worm motility inhibition (EC50), values of independent experiments) was 0.16 µM and the EC50 ([1]; Schistosoma mansoni, male, 0-72 h, read-out: EC50 against male adult worms (motility), span over incubation times) was roughly 0.2 µM. For the same compound, the EC50 ([1]; male, 48 h, individual experiments, listed as PZQ (1), read-out: Male worm motility inhibition (EC50), values of independent experiments) was 0.24 µM, the EC50 ([1]; male, 72 h, individual experiments, listed as PZQ (1), read-out: Male worm motility inhibition (EC50), values of independent experiments) was 0.17 µM and the “parasite metabolic activity compared to the DMSO control group (XTT)” value ([2]; 100 μM) was “significantly decreased”. For the same compound, the viability at 100 µM ([2]; Schistosoma mansoni, mean ± SD, read-out: juvenile worm viability (XTT, % residual viability)) was 71.5% and the “activation of Fh.TRPMPZQ” value (Fh.TRPMPZQ) was “does not activate”.

For `O=C(C1CCCCC1)N1CC(=O)N2CCc3ccc(-n4cc(C5(O)CCCCC5)nn4)cc3C2C1` (stereo not drawn) [Compound 5d], the “hit classification (motility and phenotype scores)” value (S. mansoni schistosomula; 50 μM, hit if motility < -0.35 and phenotype < -0.15) was “inactive”, the Emax (Eg.TRPMPZQ) was 94 ± 4.08% and the “activity against adult worms” value ([1]; data not shown) was “inactive”. For the same compound, the “Bmax, wild-type Sm.TRPMPZQ activation” value (Sm.TRPMPZQ (wild-type)) was “No activity”, the “EC50 for wild-type Sm.TRPMPZQ activation” value (Sm.TRPMPZQ (wild-type); 0.001 to 100 μM) was “failed to activate; also recorded: No activity” and the “activation of Sm.TRPMPZQ mutant form L1515A” value (Sm.TRPMPZQ L1515A mutant) was “activated”. For the same compound, the “block of PZQ activation of Sm.TRPMPZQ (antagonist mode)” value (Sm.TRPMPZQ) was “failed to impact subsequent responses to PZQ”.
